Test results published in patent publication US20140315943A1, “COMBINATION THERAPY OF HSP90 INHIBITORY COMPOUNDS WITH MTOR/P13K INHIBITORS” (SYNTA PHARMACEUTICALS CORP., priority 2011, published 2014).
Read-outs that look alike come from different tables or passages of the source.

Columns and labels:
[1] = test system: androgen receptor, AKT, PARP; assay: Western blot in LNCaP cells: androgen receptor, AKT, PARP cleavage; format: cell-based; details: FIG. 2
Description: (§1) Cells, treated with compound for 24 hr, were lysed in RIPA buffer (CST, Danvers, Mass., USA) on ice and clarified by centrifugation. Equal amounts of proteins were resolved by SDS-PAGE and immunoblotted with indicated antibodies. The antigen-antibody complex was visualized and quantitated using an Odyssey system (LI-COR, Lincoln, Nebr., USA).

MEK = assay: Western blot, feedback activation of MEK; format: cell-based; details: melanoma cells, FIG. 5
Description: (§2) A375 melanoma cells (BRAF^V600E mutant) were purchased from the American Type Culture Collection (Manassas, Va.) and grown in RPMI or DMEM, in the presence of fetal bovine serum (10%), 2 mM L-glutamine and antibiotics (100 IU/ml penicillin and […] streptomycin) purchased from Sigma Aldrich. Cells were maintained at 37° C., 5% CO2 atmosphere.
as §1

AKT and ERK = assay: Western blot of signaling pathways, AKT and ERK activity; format: cell-based; details: A375 melanoma cells
Description: as §2, §1

4EBP1 = assay: Western blot, 4EBP1 dephosphorylation; format: cell-based; details: A375 melanoma cells
Description: as §2, §1

B-raf = details: cited from earlier work
[2] = test system: androgen receptor (AR), Akt; assay: Everolimus-induced AR expression and Akt activity, apoptosis (FIG. 1); format: cell-based; details: in combination with everolimus
Description: as §1

SMILES | Akt deactivation [1] | feedback activation of MEK (MEK) | AKT and ERK activity (AKT and ERK) | dephosphorylation of 4EBP1 (4EBP1) | B-raf degradation (B-raf; A375 (V600E) versus CHL cells (wild type B-raf)) | B-raf degradation (B-raf; B-raf mutants E586K and L597V) | B-raf degradation (B-raf; B-raf mutants V600D, G469A, G469E, G596R, G466V, G594V in COS cells) | apoptosis [2] | everolimus-induced AR expression and Akt activity [2] | Inhibition of AKT (AKT and ERK; Western blot, FIG. 4)
Cn1c(=O)n(-c2ccc(C(C)(C)C#N)cc2)c2c3cc(-c4cnc5ccccc5c4)ccc3ncc21 [BEZ235, 2-methyl-2-[4-[3-methyl-2-oxo-8-(quinolin-3-yl)-2,3-dihydroimidazo[4,5-c]quinolin-1-yl]phenyl]propionitrile] | able to deactivate Akt | feedback activation of MEK observed | enhanced the activity of AKT and ERK | sufficient to dephosphorylate 4EBP1 |  |  |  |  |  | 
C=CCNC1=C2C[C@@H](C)C[C@H](OC)[C@H](O)[C@@H](C)/C=C(\C)[C@H](OC(N)=O)[C@@H](OC)/C=C\C=C(/C)C(=O)NC(=CC1=O)C2=O [Compound 17AAG] |  |  |  |  | B-raf was degraded more rapidly than in CHL cells | not sensitive to degradation | degraded more rapidly than wild type B-raf |  |  | 
CC(C)c1cc(-c2nnc(O)n2-c2ccc3c(ccn3C)c2)c(O)cc1O [ganetespib, 3-(2,4-DIHYDROXY-5- ISOPROPYL-PHENYL)-4-(1- METHYL-INDOL-5-YL)-5- HYDROXY-[1,2,4] TRIAZOLE] |  |  | effective in disrupting AKT and ERK activity | could not completely dephosphorylate 4EBP1 |  |  |  | increased apoptosis | sufficient in blocking everolimus-induced AR expression and Akt activity | blocked by lower concentrations of ganetespib compared to BEZ-235
